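Values below derive from 48-hour exposures of cells grown in 96-well plates, with endpoints linearly interpolated between the two concentrations bracketing the appropriate inhibition level. At the TGI there is no net growth.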
Columns and labels:
Assay in all cases: DTP human tumour cell line panel, 48 h
LOX IMVI melanoma = system: LOX IMVI melanoma
MDA-MB-231 breast = system: MDA-MB-231 breast
K-562 leukemia = system: K-562 leukemia
HCT-15 colon = system: HCT-15 colon
MCF7 breast = system: MCF7 breast
SK-MEL-2 melanoma = system: SK-MEL-2 melanoma
DU-145 prostate = system: DU-145 prostate
CAKI-1 renal = system: CAKI-1 renal
UACC-62 melanoma = system: UACC-62 melanoma
SNB-19 CNS = system: SNB-19 CNS

| SMILES | TGI (LOX IMVI melanoma) [µM] | TGI (MDA-MB-231 breast) [µM] | TGI (K-562 leukemia) [µM] | TGI (HCT-15 colon) [µM] | TGI (MCF7 breast) [µM] | TGI (SK-MEL-2 melanoma) [µM] | TGI (DU-145 prostate) [µM] | TGI (CAKI-1 renal) [µM] | TGI (UACC-62 melanoma) [µM] | TGI (SNB-19 CNS) [µM] |
| --- | --- | --- | --- | --- | --- | --- | --- | --- | --- | --- |
| CCNC(=S)N=Nc1c(O)[nH]c2ccc([N+](=O)[O-])cc12 | > 100 | > 100 | > 100 | > 100 | > 100 | > 100 | > 100 | > 100 | > 100 | > 100 |
| OC1(c2ccccc2)CCN(Cc2c[nH]c3ccccc23)CC1 | > 100 | > 100 | > 100 | > 100 | > 100 | 36.1 | > 100 | > 100 | > 100 | > 100 |
| Cc1cc(-c2nc3cc(F)ccc3s2)ccc1NC(=O)[C@@H](N)CCCCN | 3.62 | 10.5 | 5.21 | 21 | 11.8 | 8.76 | 28.4 | 20.3 | 23.4 | 28.9 |
| CSCCC(N)C(=O)NCCNc1ccc(NCCNC(=O)C(N)CCSC)c2c1C(=O)c1ccccc1C2=O (centres undefined) | 2.54 | 2.81 | > 100 | 16.3 | 4.77 | 7.59 | 5.4 | 7.25 | 2.51 | 5.81 |
| Cc1ccc2c(=O)cc(-c3ccc(Cl)s3)[nH]c2n1 | > 100 | > 100 | > 100 | > 100 | > 100 | > 100 | > 100 | > 100 | > 100 | > 100 |
| Cc1cccc(Nc2nn3c(=O)c4c5c(sc4nc3s2)CCCC5)c1 | 23.1 | > 100 | > 100 | > 100 | > 100 | > 100 | > 100 | > 100 | 5.92 | > 100 |
| CC(=O)NCCC1CN(C(=O)/C=C/I)c2ccccc21 (centres undefined) | 3.25 | 5.15 | > 100 | 9.66 | 2.87 | 14.8 | 29.2 | 9.03 | 9.89 | 27.9 |
| O=[N+]([O-])c1ccc2sc(C=Nc3cnccn3)cc2c1 | 60.6 | > 100 | 88.6 | > 100 | > 100 | 75.2 | > 100 | > 100 | 53.1 | > 100 |
| COc1cc([C@@H]2c3cc4c(cc3[C@@H](c3c(O)cc(O)c5c3O[C@H](c3ccc(O)c(O)c3)[C@@H](O)C5)[C@H]3COC(=O)[C@H]23)OCO4)cc(OC)c1OC | > 100 | 3.28 | 78.5 | > 100 | 3.11 | 3.75 | 3.22 | 3.57 | 3.13 | > 100 |
| CSCSSC | > 100 | > 100 | > 100 | > 100 | > 100 | > 100 | > 100 | > 100 | > 100 | > 100 |
| COc1ccc(C2=Nc3cc(C)c(C)cc3NC(c3ccccc3)C2)cc1 (centres undefined) | > 100 | > 100 | > 100 | > 100 | > 100 | > 100 | > 100 | > 100 | > 100 | > 100 |
| Cc1ccc(OCC2OC(n3cnc4c(Cl)nc(N)nc43)CC2Oc2ccc(C)cc2)cc1 (centres undefined) | > 100 | > 100 | > 100 | > 100 | > 13.3 | > 56.9 | > 100 | 20.3 | > 100 | > 100 |
| OCC(O)C(O)C(O)C(O)c1nc2ccc(Cl)cc2[nH]1 (centres undefined) | > 100 | > 100 | > 100 | > 100 | > 100 | > 100 | > 100 | > 100 | > 100 | > 100 |
| CCCCC(=O)c1c(O)nc2sccn2c1=O | > 10 | > 10 | – | > 10 | > 10 | > 10 | > 10 | > 10 | > 10 | > 10 |
| CCCCOC(=O)C(NC(C(=O)OCCCC)c1cc(C(C)(C)C)c(O)c(C(C)(C)C)c1)c1cc(C(C)(C)C)c(O)c(C(C)(C)C)c1 (centres undefined) | > 100 | > 100 | > 100 | > 100 | > 100 | > 100 | > 100 | > 100 | > 100 | > 100 |
| C[N+](C)(C)c1ccc(C(N)C(=O)O)cc1 (centres undefined) | > 100 | > 100 | > 100 | > 100 | > 100 | > 100 | > 100 | > 100 | > 100 | > 100 |
| CC(C)CNc1nc2ncnc(N)c2[nH]1 | > 100 | > 100 | > 100 | > 100 | > 100 | > 100 | > 100 | > 100 | > 100 | > 100 |
| C=C/C(C)=C\CC1[C@](C)(O)CC[C@H]2C(C)(C)C(=O)CC[C@]12C (some centres undefined) | > 100 | > 100 | > 100 | > 100 | > 100 | > 100 | > 100 | > 100 | > 100 | > 100 |
| C[C@H](NC(=O)C(Cc1ccccc1)(Cc1ccc(O)cn1)NC(=O)c1ccccc1)c1ccccc1 (some centres undefined) | 29.7 | 29.4 | > 100 | 38.3 | 75.5 | 27.6 | 35.5 | 90.5 | 26.5 | 39.4 |
| CC(NC(=O)C(NC(=O)CNC(=O)OC(C)(C)C)C(C)C)C(=O)Oc1c(Cl)c(Cl)c(Cl)c(Cl)c1Cl (centres undefined) | 32.5 | 42 | > 100 | 33.2 | 74.1 | 30.3 | 49.3 | 39.3 | 34.8 | 96 |
| C[n+]1cccc2c(=O)c3ccccc3oc21 | > 100 | > 100 | > 100 | > 100 | > 100 | > 100 | > 100 | > 100 | > 100 | > 100 |
| CC(C)=NN/C(=N\S(=O)(=O)c1ccc(Oc2cccc(Cl)c2C#N)cc1)Nc1ccc(Cl)cc1 | > 100 | > 100 | > 100 | > 100 | > 100 | > 100 | > 100 | > 100 | > 100 | > 100 |
| Cc1ccc([S@](=O)c2occc2C=O)cc1 | 3.93 | 24.2 | 4.25 | 9.84 | 13.3 | 29.2 | 33.1 | 30.7 | 29.3 | 18 |
| O=C(NCCCCCCCCCCCCNC(=O)Nc1cccc2ccccc12)Nc1cccc2ccccc12 | 34.2 | 35.9 | 50.5 | 36.8 | 35.1 | 35.7 | 70.9 | 31.7 | 26.7 | 30.1 |
| CC1CCCC2(CC[N+](C)(CCC[N+](C)(C)C)CC2)C1 (centres undefined) | > 100 | > 100 | > 100 | > 100 | > 100 | > 100 | > 100 | > 100 | > 100 | > 100 |
| CCOP(=O)(/C=C\n1cc(C)c(=O)[nH]c1=O)OCC | > 100 | > 100 | > 100 | > 100 | > 100 | > 100 | > 100 | > 100 | > 100 | > 100 |
| CCCCCCCC/C=C\CCCCCCC/C=C1\C[C@](/C=C/C(=O)OC)(CO)OC1=O | 3.02 | 6.6 | 15.3 | 8.22 | 14.7 | 23.9 | 24.6 | 4.15 | 20.1 | 16 |
| N#CC1(C#N)NC(c2cccs2)C(C#N)(C#N)NC1c1cccs1 (centres undefined) | 37.3 | > 100 | 56.3 | > 100 | 51.8 | 50.5 | > 100 | > 100 | 57.9 | > 100 |
| O=S(=O)(c1ccc(NC2=NC(c3ccc(O)cc3)(c3ccccc3O)c3ccccc32)cc1)c1ccc(NC2=NC(c3ccc(O)cc3)(c3ccccc3O)c3ccccc32)cc1 (centres undefined) | > 100 | > 44.6 | > 100 | > 81 | > 100 | 22.9 | > 35.4 | 59.4 | > 100 | > 100 |
| CCCC(=O)NC(Nc1ccc(S(=O)(=O)Nc2cc(C)on2)cc1)(C(=O)OCC)C(F)(F)F (centres undefined) | > 100 | > 100 | > 100 | > 100 | > 100 | > 100 | > 100 | > 100 | > 100 | > 100 |
